`CCn1nccc1N(C(=O)COc1cccc(O)c1C=O)C(C)C` [compound 22, N-(1-ethyl-1H-pyrazol-5-yl)-2-(2-formyl-3-hydroxyphenoxy)-N-isopropylacetamide] showed a melting point of 179 to 182 °C.

From patent US9248199B2, “1:1 adducts of sickle hemoglobin” (Global Blood Therapeutics, Inc., priority 2014, dated 2016)
